# Literature values as cited in patent publication US7332526B2 (Allergan, Inc., priority 2003, dated 2008).
# No end group written: not given here.
# B1: TFF2: human trefoil factor family peptide containing two trefoil domains, produced by mucus-producing cells of stomach (protein, UniProt Q03403 24-129, looked up)
# Trefoil factor 2: EKPSPCQCSRLSPHNRTNCGFPGITSDQCFDNGCCFDSSVTGVPWCFHPLPKQESDQCVMEVSDRRNCGYPGISPEECASRKCCFSNFIFEVPWCFFPKSVEDCHY
# Legend:
# [1] = tested on: wounded corneal epithelial cells; conditions: in vitro, rabbit cells
# [2] = in vivo
Molecule,migration of wounded corneal epithelial cells [1],hyperemia and other irritating side effects compared to certain prostaglandins [2]
"TFF3: human trefoil factor family peptide with one trefoil domain, produced by goblet cells of small and large intestine (EEYVGLSANQCAVPAKDRVDCGYPHVTPKECNNRGCCFDSRIPGVPWCFKPLQEAECTF; ends and bridges not checked; cysteine pairing not given here; UniProt Q07654 22-80, looked up)",promote the migration,
CCNC(=O)CCC/C=C\C[C@@H]1[C@@H](/C=C/[C@@H](O)CCc2ccccc2)[C@H](O)C[C@@H]1O [bimatoprost],,significantly less hyperemia and other irritating side effects
B1,promote the migration,
